Values of other authors in US6737381B1, “Phytosanitary composition comprising at least a water soluble agent and a modified oil” (Institut National de la Recherche Agronomique, priority 1999, dated 2004).

Settings: hydrophilic herbicide

O=C(O)CNCP(=O)(O)O [glyphosate, N-(phosphonomethyl)glycine]
log P: < −3.4
